In patent US20210038577A1, “THIOREDOXIN REDUCTASE INHIBITORS FOR USE IN THE TREATMENT OF CANCER” (Cinda Pharma AB, priority 2018, published 2021):

Legend:
[1] = tested on: 4T1-luc2 murine tumor cells; test: 4T1-luc2 tumors in mammary fat pad of immunocompetent BALB/c mice; type: in vivo; conditions: 5 mg/kg 5/2 for 15 days, bioluminescence
Experimental: Female BALB/c immunocompetent mice were implanted with 1×10^5 4T1-luc2 murine tumor cells into the mammary fat pad. Upon growth of the tumors between 60-90 mm^3 the animals were selected for imaging. Mice were randomized and enrolled for treatment based on imaging flux values. Mice were treated once daily with 5 mg/kg of either OT-1096 or vehicle control using a 5/2 (five days on, two days off) dosing protocol. Upon days 1, 8, and 15 whole body imaging was performed on the mice to follow tumor cell luminescence. Analysis consists of primary tumor luminescence in mice. Each mouse was normalized to its own baseline luminescence from day 1. […] Data is represented as mean±SEM. Statistical significance (p<0.05) was determined using a Mann-Whitney test. The relative luminescence flux for mice treated with OT-1096 was significant compared to vehicle at day 15.
Athymic nude mice were inoculated orthotopically with 5×10^6 MDA-MB-231 breast cancer cells into the mammary fat pad, and randomized for treatment when tumors reached an average volume of 80-120 mm^3 (N=12 in each group). […] Xenograft tumor volume was assessed using caliper measurements for 25 days. […] Xenograft tumor volume was assessed using caliper measurements for 25 days. […] Statistical significance (p<0.05) was determined using a Two-way repeated measures ANOVA with Sidak's multiple comparison test. […]

recombinant rat TrxR = biological target: T1, recombinant rat TrxR (Rattus norvegicus, UniProt O89049); test: Sec-dependent TrxR activity (DTNB assay); type: biochemical; conditions: binding time of 4 hours (FIG. 1A)
T1 sequence (O89049 1-499): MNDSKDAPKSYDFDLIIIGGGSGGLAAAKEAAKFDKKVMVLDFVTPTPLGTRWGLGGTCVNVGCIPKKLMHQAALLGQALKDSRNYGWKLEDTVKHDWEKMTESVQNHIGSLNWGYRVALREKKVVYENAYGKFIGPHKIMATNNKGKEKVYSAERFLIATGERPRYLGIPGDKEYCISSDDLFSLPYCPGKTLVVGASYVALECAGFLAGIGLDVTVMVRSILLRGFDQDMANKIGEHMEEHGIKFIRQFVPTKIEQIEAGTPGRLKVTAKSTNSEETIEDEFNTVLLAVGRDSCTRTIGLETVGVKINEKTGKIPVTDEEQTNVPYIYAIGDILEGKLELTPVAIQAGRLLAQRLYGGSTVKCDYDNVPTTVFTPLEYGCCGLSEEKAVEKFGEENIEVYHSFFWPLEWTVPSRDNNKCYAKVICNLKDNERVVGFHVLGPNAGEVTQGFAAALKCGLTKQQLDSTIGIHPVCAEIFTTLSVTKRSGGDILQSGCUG
Experimental: Sec-dependent TrxR activity was assessed using a 5′-5-dithiobis-(2-nitrobenzoic acid) (DTNB) assay. Multiple concentrations of compounds were incubated for various time points in reaction buffer, consisting of 50 mM Tris pH 7.5 with 2 mM EDTA and 0.1 mg/mL bovine serum albumin, and containing recombinant rat TrxR and 250 μM NADPH. 2.5 mM DTNB was added to each well and TNB^− production was followed at OD412. […] The amino acid sequence of rat TrxR1 is available in Gen Bank, with accession number AAF32362.1.

MDA-MB-231 cells = test: CellQuanti-Blue cell viability assay, MDA-MB-231; type: cell-based, human
Experimental: (§1) Cell viability was then assessed using the CellQuanti assay. Relative cell viability was determined using DMSO only and blank controls.
(§2) Cells were plated at 2000 cells/well into 96-well plates in media containing 10% FBS. […] CellQuanti-Blue cell viability reagent was added to each well and the plates were subsequently incubated at 37° C. for 3 hours. Viability was determined fluorometrically using an Enspire plate reader […] excitation: 530 nm, emission: 590 nm. Viability was normalized to DMSO controls and blank wells with media.

MDA-MB-453 cells = test: CellQuanti-Blue cell viability assay, MDA-MB-453; type: cell-based
Experimental: as §1, §2

[2] = CellQuanti-Blue, 24, 48 or 72 hours

Compound | % TGI [1] [%] | potency relative to Iniparib, TrxR C-terminal activity (recombinant rat TrxR) [fold] | sensitivity of MDA-MB-231 cells over time of exposure (MDA-MB-231 cells; 24, 48, 72 hours (FIG. 2A)) | potency relative to Iniparib in MDA-MB-231 cells (MDA-MB-231 cells; [2]) [fold] | sensitivity of MDA-MB-453 cells over time of exposure (MDA-MB-453 cells; 24, 48, 72 hours (FIG. 2B)) | potency relative to Iniparib in MDA-MB-453 cells (MDA-MB-453 cells; [2])
CCCCCCCCS(=O)(=O)c1nc(OC)ccc1[N+](=O)[O-] [OT-1096, 6-methoxy-3-nitro-2-(octylsulfonyl)pyridine] | 54 | – | – | – | – | –
COc1ccc([N+](=O)[O-])c(S(=O)(=O)c2ccc(Cl)cc2)n1 [OT-1000, 2-((4-Chlorophenyl)sulfonyl)-6-methoxy-3-nitropyridine] | – | 1000 | increasingly sensitive | 100 | increasingly sensitive | more potent
